Tests used:
[1] = tested on: ATF4; test: HEK-ATF4 High Content Imaging assay (prevention of Tunicamycin induced ISR); format: cell-based; conditions: Homo sapiens, wild-type HEK293 cells, 6 hrs incubation, ATF4 signal ratio nucleus/cytoplasm, read-out: Activity (IC50, HEK-ATF4 readout)
Experimental: Example compounds were tested in the HEK-ATF4 High Content Imaging assay to assess their pharmacological potency to prevent Tunicamycin induced ISR. Wild-type HEK293 cells were plated in 384-well imaging assay plates at a density of 12,000 cells per well in growth medium (containing DMEM/F12, 10% FBS, 2 mM L-Glutamine, 100 U/mL Penicillin—100 μg/mL Streptomycin) and incubated at 37° C., 5% CO2. 24-hrs later, the medium was changed to 50 μl assay medium per well (DMEM/F12, 0.3% FBS, 2 mM L-Glutamine, 100 U/mL Penicillin—100 μg/mL Streptomycin). Example compounds were serially diluted in dimethyl sulfoxide (DMSO), spotted into intermediate plates and prediluted with assay medium containing 3.3 μM Tunicamycin to give an 11-fold excess of final assay concentration. In addition to the example compound testing area, the plates also contained multiples of control wells for assay normalization purposes, wells containing Tunicamycin but no example compounds (High control), as well as wells containing neither example compound nor Tunicamycin (Low control). The assay was started by transferring 5 μl from the intermediate plate into the assay plates, followed by incubation for 6 hrs at 37° C., 5% CO2. Subsequently, cells were fixed (4% PFA in PBS, 20 min at room temperature) and submitted to indirect ATF4 immunofluorescence staining (primary antibody rabbit anti ATF4, clone D4B8, Cell Signaling Technologies; secondary antibody Alexa Fluor 488 goat anti-rabbit IgG (H+L), Thermofisher Scientific). Nuclei were stained using Hoechst dye (Thermofisher Scientific), and plates were imaged on an Opera Phenix High Content imaging platform equipped with 405 nm and 488 nm excitation. Finally, images were analyzed using script based algorithms. The main readout HEK-ATF4 monitored the ATF4 signal ratio between nucleus and cytoplasm. Tunicamycin induced an increase in the overall ATF4 ratio signal, which was prevented by ISR modulating example compounds. In addition, HEK-CellCount readout was derived from counting the number of stained nuclei corresponding to healthy cells. This readout served as an internal toxicity control.

[2] = target: T1, human ERG potassium channel (hERG) (Homo sapiens, UniProt Q12809); test: hERG tail current recording, Rapid ICE automated patch-clamp (QPatch HTX); format: cell-based; conditions: recombinant HEK293 cell line stably transfected with hERG cDNA; test concentrations 0.3, 3 and 30 μM; read-out: hERG Activity (IC50, tail current inhibition)
T1 construct: expressed in transfected cells; host or cells: HEK293, stably transfected, tetracycline-inducible
Experimental: The potency of the example compounds in inhibiting human ERG potassium channel (hERG) tail current was assessed in a recombinant HEK293 cell line stably transfected with hERG cDNA under an inducible promoter, using Rapid ICE (rapid ion channel electrophysiology) assay. Rapid ICE is an automated patch-clamp assay utilizing the QPatch HTX system (Sophion Bioscience A/S). Briefly, inducible HEK hERG cells were cultivated in minimum essential medium supplemented with 10% FBS, 1% non-essential amino acids, 1% sodium pyruvate, 2 mM 1-glutamine, 15 μg/mL blasticidin, and 100 μg/mL hygromycin. hERG channel expression induction was obtained by adding 10 μg/mL tetracycline for 24, 48, or 72 h before recordings.
On the day of the experiment, cells were detached with TrypLE and prepared to be loaded on the instrument. Cells were resuspended in 7 mL of Serum-Free Media containing 25 mM Hepes and soybean trypsin inhibitor and immediately placed in the cell storage tank of the machine. The composition of the extracellular buffer was (mM): NaCl 137, KCl 4, CaCl2 1.8, MgCl2 1.0, d-glucose 10, N-2-hydroxyethylpiperazine-N′-2-ethanesulfonic acid (HEPES) 10, pH 7.4 with 1 M NaOH. The composition of the intracellular solution was (mM): KCl 130, MgCl2 1.0, ethylene glycol-bis(β-aminoethyl ether)-N,N,N′,N′-tetraacetic acid (EGTA) 5, MgATP 5, HEPES 10, pH 7.2 with 1 M KOH. The voltage protocol included the following steps: step from −80 to −50 mV for 200 ms, +20 mV for 4.8 s, step to −50 mV for 5 s, then step to the holding potential of […]. Example compounds were dissolved in DMSO and diluted in extracellular buffer to achieve final test concentrations (0.3, 3, and 30 μM) in 0.3% DMSO. The voltage protocol was run and recorded continuously during the experiment. The vehicle, corresponding to 0.3% DMSO in extracellular buffer was then applied for 3 min, followed by the example compound in triplicate. The standard combined exposure time was 5 min. The average of tail current amplitude values recorded from four sequential voltage pulses was used to calculate for each cell the effect of the example compound by calculating the residual current (% control) compared with vehicle pretreatment. Data were reported as % inhibition for each concentration tested, and IC50 values were estimated using QPatch software. At least two cells were tested, and even more if results diverged.

T1 sequence (Q12809 whole entry): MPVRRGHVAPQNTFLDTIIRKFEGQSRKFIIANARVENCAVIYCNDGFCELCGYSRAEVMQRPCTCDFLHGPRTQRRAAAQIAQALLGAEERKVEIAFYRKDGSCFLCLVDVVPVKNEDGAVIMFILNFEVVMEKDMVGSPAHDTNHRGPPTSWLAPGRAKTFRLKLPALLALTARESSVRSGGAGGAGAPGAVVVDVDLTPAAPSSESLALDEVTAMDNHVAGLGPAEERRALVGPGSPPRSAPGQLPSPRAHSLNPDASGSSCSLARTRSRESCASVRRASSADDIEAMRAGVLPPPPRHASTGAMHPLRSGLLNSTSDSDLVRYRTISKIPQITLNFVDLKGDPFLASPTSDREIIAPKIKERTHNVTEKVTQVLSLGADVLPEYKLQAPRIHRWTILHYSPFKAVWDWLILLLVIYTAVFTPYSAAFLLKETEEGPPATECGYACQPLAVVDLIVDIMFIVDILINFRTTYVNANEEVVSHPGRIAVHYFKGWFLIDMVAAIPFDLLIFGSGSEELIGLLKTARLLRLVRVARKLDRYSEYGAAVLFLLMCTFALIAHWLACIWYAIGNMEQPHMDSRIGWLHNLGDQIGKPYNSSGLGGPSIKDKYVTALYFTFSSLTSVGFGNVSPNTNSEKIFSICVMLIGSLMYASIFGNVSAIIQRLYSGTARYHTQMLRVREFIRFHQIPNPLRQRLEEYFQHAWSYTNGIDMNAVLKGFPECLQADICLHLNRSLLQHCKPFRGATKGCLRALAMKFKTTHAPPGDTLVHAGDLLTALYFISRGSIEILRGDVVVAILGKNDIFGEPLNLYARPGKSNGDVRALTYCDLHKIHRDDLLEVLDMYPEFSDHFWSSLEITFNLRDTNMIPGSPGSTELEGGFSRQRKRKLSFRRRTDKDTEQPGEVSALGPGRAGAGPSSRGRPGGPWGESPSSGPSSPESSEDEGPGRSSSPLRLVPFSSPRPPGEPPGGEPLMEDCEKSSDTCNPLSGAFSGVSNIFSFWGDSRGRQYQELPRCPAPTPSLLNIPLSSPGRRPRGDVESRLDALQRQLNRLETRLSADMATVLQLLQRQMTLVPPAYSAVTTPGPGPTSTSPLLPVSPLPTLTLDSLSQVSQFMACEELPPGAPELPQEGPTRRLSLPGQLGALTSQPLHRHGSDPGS

Row | IC50 [1] [nM] | SMILES | IC50 [2] [nM]
1 | 1 to 500 | O=C(COc1ccc(Cl)c(F)c1)N[C@H]1CO[C@H](c2nnc(-c3ccc(Cl)cc3)o2)OC1 [Example 1, 2-(4-chloro-3-fluorophenoxy)-N-[trans-2-[5-(4-chlorophenyl)-1,3,4-oxadiazol-2-yl]-1,3-dioxan-5-yl]acetamide] | 
2 | 1 to 500 | O=C(COc1ccc(Cl)c(F)c1)N[C@H]1CO[C@H](c2nnc([C@H]3C[C@@H](OC(F)(F)F)C3)o2)OC1 [Example 2, 2-(4-chloro-3-fluorophenoxy)-N-[trans-2-{5-[cis-3-(trifluoromethoxy)cyclobutyl]-1,3,4-oxadiazol-2-yl}-1,3-dioxan-5-yl]acetamide] | > 5000
3 | 2000 to 15000 | O=C(COc1ccc(Cl)c(F)c1)N[C@H]1CO[C@@H](c2cn(-c3ccc(Cl)cc3)nn2)OC1 [Example 3, 2-(4-chloro-3-fluorophenoxy)-N-[cis-2-[1-(4-chlorophenyl)-1H-1,2,3-triazol-4-yl]-1,3-dioxan-5-yl]acetamide] | 
4 | 500 to 2000 | O=C(COc1ccc(Cl)c(F)c1)N[C@H]1CO[C@H](c2cn(-c3ccc(Cl)cc3)nn2)OC1 [Example 4, 2-(4-chloro-3-fluorophenoxy)-N-[trans-2-[1-(4-chlorophenyl)-1H-1,2,3-triazol-4-yl]-1,3-dioxan-5-yl]acetamide] | 
5 | 1 to 500 | O=C(COc1ccc(Cl)c(F)c1)N[C@H]1CO[C@H](c2nnc(OCCOC(F)(F)F)o2)OC1 [Example 6, 2-(4-chloro-3-fluorophenoxy)-N-[trans-2-{5-[2-(trifluoromethoxy)ethoxy]-1,3,4-oxadiazol-2-yl}-1,3-dioxan-5-yl]acetamide] | > 5000
6 | 1 to 500 | O=C(COc1ccc(Cl)c(F)c1)N[C@H]1CO[C@H](c2nnc(N3CC(OC(F)(F)F)C3)o2)OC1 [Example 7, 2-(4-chloro-3-fluorophenoxy)-N-[trans-2-{5-[3-(trifluoromethoxy)azetidin-1-yl]-1,3,4-oxadiazol-2-yl}-1,3-dioxan-5-yl]acetamide] | > 5000
7 | 1 to 500 | O=C(COc1ccc(C(F)F)c(Cl)c1)N[C@H]1CO[C@H](c2nnc(N3CC(OC(F)(F)F)C3)o2)OC1 [Example 8, 2-[3-chloro-4-(difluoromethyl)phenoxy]-N-[trans-2-{5-[3-(trifluoromethoxy)azetidin-1-yl]-1,3,4-oxadiazol-2-yl}-1,3-dioxan-5-yl]acetamide] | > 5000
8 | 1 to 500 | O=C(COc1ccc(Cl)c(Cl)c1)N[C@H]1CO[C@H](c2nnc(OCCOC(F)(F)F)o2)OC1 [Example 9, 2-(3,4-dichlorophenoxy)-N-[trans-2-{5-[2-(trifluoromethoxy)ethoxy]-1,3,4-oxadiazol-2-yl}-1,3-dioxan-5-yl]acetamide] | > 5000
9 | 2000 to 15000 | O=C(COc1cnc(Cl)c(F)c1)N[C@H]1CO[C@H](c2nnc([C@H]3C[C@@H](OC(F)(F)F)C3)o2)OC1 [Example 10, 2-[(6-chloro-5-fluoro-3-pyridyl)oxy]-N-[trans-2-[5-[cis-3-(trifluoromethoxy)cyclobutyl]-1,3,4-oxadiazol-2-yl]-1,3-dioxan-5-yl]acetamide] | > 5000

Row | SMILES | IC50 [1] [nM] | IC50 [2] [nM]
10 | O=C(COc1ccc(Cl)c(F)c1)N[C@H]1CO[C@H](c2nnc(OCCCC(F)(F)F)o2)OC1 [Example 5, 2-(4-chloro-3-fluorophenoxy)-N-[trans-2-[5-(4,4,4-trifluorobutoxy)-1,3,4-oxadiazol-2-yl]-1,3-dioxan-5-yl]acetamide] | 1 to 500 | 1000 to 5000

Source: US12441720B2, “Modulators of the integrated stress response pathway” (EVOTEC INTERNATIONAL GMBH, priority 2020, dated 2025)
